Source: the CATMoS acute toxicity set (Mansouri et al. 2021)

Test: GHS categories as the set defines them, by LD50: 1 up to 5, 2 up to 50, 3 up to 300, 4 up to 2000, 5 above 2000 mg/kg
Conditions: rat; in vivo; po
Excerpt: […]The data set underlying the modeling effort for this project was initially compiled by NICEATM and U.S. EPA’s CCTE. Briefly, LD50 data were collected from rat acute oral systemic toxicity tests, including limit tests, ranges/confidence intervals, and discrete LD50 values. The full data set included 21,200 LD50 entries for 15,688 substances. […] Data were reviewed to ensure that LD50 values with obvious errors in the extracted data such as unit conversion errors (e.g., comma and decimal separator misplacements) were either fixed or removed. After this review, 16,209 LD50 values remained. Many of the chemicals represented had multiple LD50 entries, requiring that a single representative value per Chemical Abstracts Service Registry Number (CASRN) identifier be defined to facilitate modeling efforts. Based on ATWG feedback and to define the representative LD50 as a protective value while accounting for the distribution across multiple LD50s, the median of the lowest quartile was computed using only discrete LD50 values (omitting limit test data and range and confidence interval data). A detailed summary of the data compilation is available online on the NICEATM webpage dedicated to the collaborative modeling project (NTP 2020).
[…][…] For categorical designations, limit test and range/confidence interval LD50 data were integrated wherever possible. As such, the number of chemicals with end point values/calls varies across the modeling end points (Table 3) based on whether chemicals had representative LD50 values and/or other data. If a chemical had both, the representative value was used to determine categorical calls rather than limit test data. Some data were useable only for certain end points and categories depending on the thresholds. For example, ranges that spanned multiple hazard categories were considered only for the binary (very toxic/nontoxic) end points and omitted from rendering a determination for hazard category assignment.
[…]The final data set comprising 11,992 chemicals was split into training and evaluation sets […], respectively. This process was performed semirandomly by ordering chemicals based on the five end points (categorical and continuous LD50 values) and partitioning every fourth record into the evaluation set accordingly. This approach was taken to ensure an equivalent distribution of the LD50 values and the different hazard categories between the training and the evaluation sets without supervised sampling of the chemicals based on structures (Figure 1A). The sources of the chemical structures were also kept equivalent between the two sets, with chemical structures obtained from DSSTox, being the highest quality, representing over 75% of each set (Figure 1B).

Compound | GHS category
CC(O)CO[C@@H]1[C@@H](O)[C@H]2O[C@H]3[C@H](OCC(C)O)[C@@H](O)[C@@H](O[C@H]4[C@H](O)[C@@H](OCC(C)O)[C@@H](O[C@H]5[C@H](O)[C@@H](O)[C@@H](O[C@H]6[C@H](O)[C@@H](OCC(C)O)[C@@H](O[C@H]7[C@H](O)[C@@H](O)[C@@H](O[C@@H]1[C@@H](CO)O2)O[C@@H]7CO)O[C@@H]6CO)O[C@@H]5CO)O[C@@H]4CO)O[C@@H]3CO (stereo partly specified) | 5
C=CC(C)(CCC=C(C)C)OC(=O)Cc1ccccc1 (stereo unspecified) | 5
O=c1[nH]c2ccc([N+](=O)[O-])cc2[nH]1 | 5
O=C(Nc1ccccc1-c1ccc(Cl)cc1)c1cccnc1Cl | 5
OCCOc1nn(-c2cccc(C(F)(F)F)c2)c2ncccc12 | 4
c1ccc2sc(SN3CCOCC3)nc2c1 | 5
CCCC(C)c1ccc(OCC(=O)Cl)c(C(C)CCC)c1 (stereo unspecified) | 5
O=P(Oc1ccccc1)(Oc1ccccc1)Oc1ccccc1-c1ccccc1 | 5
CCc1cccc(C)c1Nc1ccc(Nc2c(C)cccc2CC)c2c1C(=O)c1ccccc1C2=O | 5
CCC1(C)COC(Cn2cncn2)(c2cc3ccccc3o2)OC1 (stereo unspecified) | 4
CCOC(=O)Cn1c(=O)sc2cccc(Cl)c21 | 5
CCOC[C@@H]1[C@@H](O)[C@H](O[C@H]2[C@H](O)[C@@H](OCC)[C@H](O)O[C@@H]2CO)O[C@H](COCC)[C@H]1O | 5
Nc1nnc(-c2cc(Cl)ccc2Cl)c(N)n1 | 4
CC(C)COP(=O)(OCC(C)C)OCC(C)C | 5
Cc1c(Cl)ccc(O)c1Cl | 5
Cc1c(C)c2c(c(C)c1O)CCC(C)(COc1ccc(CC3SC(=O)NC3=O)cc1)O2 (stereo unspecified) | 5
Cc1cc(C)c(Nc2ccc(Nc3c(C)cc(C)cc3C)c3c2C(=O)c2ccccc2C3=O)c(C)c1 | 5
COc1ccc(-c2nc(C)c(C(N)=O)s2)cc1 | 5
CC(=O)N(CC(O)CO)c1c(I)c(C(=O)NCC(O)CO)c(I)c(C(=O)NCC(O)CO)c1I (stereo unspecified) | 5
CCCCC/C=C\CCC(CCCCCCCC(=O)O)C(CCCCCCCC)CCCCCCCCC(=O)O (stereo unspecified) | 5
CC(=O)C(O)O | 5

Compound | GHS category
CN1C(=O)CCc2c(OCCCN3CCC(Cc4ccccc4)CC3)cccc21 | 4
FC(F)CCl | 5
C=CC1=C(C(=O)O)N2C(=O)[C@@H](NC(=O)C(=NOCC(=O)O)c3csc(N)n3)[C@H]2SC1 | 5
CCC(=O)OC1CC(=O)OC(C)CC=CC=CC(OC(C)=O)C(C)CC(CC=O)C(OC2OC(C)C(OC3CC(C)(OC(C)=O)C(OC(=O)CC)C(C)O3)C(N(C)C)C2O)C1OC (stereo unspecified) | 5
CCn1c2ccccc2c2ccccc21 | 5
CC(C)OC(=O)C(C)(C)Br | 5
C1C[C@@H]2[C@H]3CC[C@H](C3)[C@@H]2C1 | 5
CC(C)CC(=O)OCc1ccccc1 | 5
CCN(C(=O)CCCCSc1nnnn1C)C1CCCCC1 | 4
Clc1ccc(N/C(=N/C2CCCCC2)c2ccccc2)c(Cl)c1 | 5
CC(=O)c1ccc(S(=O)(=O)NC(=O)NC2CCCCC2)cc1 | 5
Brc1cnc2[nH]ccc2c1 | 5
CCCc1c(Cc2ccc(-c3ccccc3-c3nn[nH]n3)cc2)c(=O)nc2nc(CO)[nH]n12 | 4
BrC1CC(Br)CC(Br)CC(Br)CC(Br)CC(Br)C1 (mixture of isomers) | 5
O=C(O)[C@H](CO)Nc1ccc([N+](=O)[O-])cc1 | 5
CC1CC(c2ccccc2)C(c2ccccc2)C(=O)O1 (stereo unspecified) | 4
CN1c2c(oc(=NC3CCCCC3)n(C3CCCCC3)c2=O)-c2sc(Cl)cc2S1(=O)=O | 2
C=CCOc1cc(Cl)ccc1C(=O)NCCN(CC)CC | 5
CC(=O)OCC(=O)[C@@]1(O)CC[C@H]2[C@@H]3CCC4=CC(=O)CC[C@]4(C)[C@@]3(F)[C@@H](O)C[C@@]21C | 4
OC(Cn1ccnc1)c1ccc(CCc2ccccc2)cc1 (stereo unspecified) | 5
